The nature of data set [1]: Plasma stability. As to conditions: % remaining in human plasma after a 5-hour incubation.
Data set [2] deals with C. albicans CaCi-2. As to the kind of experiment: Secondary single-agent (no-fluconazole) activity assay. Conditions: in the absence of fluconazole; read-out: Target Potency (μM) Mean ± S.E.M CaCi-2^b IC50. Format: cell-based, Candida albicans. As to the method: Clear, flat-bottom, black, 384-well plates were obtained from Corning. […] Pen/Strep was obtained from Gibco and prepared 100× in PBS. Fluconazole was obtained from Sigma and prepared in 2 mg/ml stock solution in PBS. Alamar Blue was obtained from Biosource International (Catalog No. DAL1100). Phosphate buffered solution (PBS) without calcium and magnesium was obtained from Cellgro.
Fungal inoculum was prepared as follows: 500 μl of yeast was inoculated from cryopreserved stock into a 250-ml shaker flask containing 30 ml growth medium and shaken overnight (16 hours) at 30° C. The culture was spun down, and the broth was poured off and washed with RPMI medium. The culture was spun down again, and the broth was poured off and resuspended in RPMI medium. The OD 600 of 1 ml of fungal culture in a cuvette was read using a standard optical density reader with growth medium as a background blank. The desired volume of fungal inoculum was diluted to starting OD of the fungal inoculum of 0.00015 A600.
Pen/Strep was added to the media to a final 1% concentration. A Combi NL (Thermo) was used to dispense 20 μl/well of assay media into all wells. Geldanamycin (1.5 mM) and fluconazole (0.2 mg/ml) were mixed for the positive control. Then, 80 nl of positive control solution was dispensed into the positive control wells using Thermo Combi nL for a final concentration of 3 μM geldanamycin and 8 μg/ml fluconazole. Then, 100 nl of test compound were pinned from the compound plates into assay plates using a CyBi-Well pin tool. A further 20 μl/well of RPMI synthetic defined medium culture was dispensed into 384-well, black plates. Fungal suspension (20 μl/well) was dispensed into all wells. The plates were incubated in a humidified (90% humidity) Liconic incubator at 37° C. without agitation for 48 hours. Alamar Blue Reagent was diluted 1:40 in Ca/Mg-free PBS. To all plates, 6.4 μl/well of the diluted Alamar Blue was added to the plates to a final dilution factor of 1:200. The plates were incubated for 2 hours at room temperature. Next, RFU of wells was read on a standard plate reader as a measure of relative fungal growth.

The nature of data set [3]: Plasma protein binding. Conditions: % bound in human plasma.
The subject of data set [4] is C. albicans CaCi-8. In words: microbe, parasite or virus in culture. Format: cell-based, Candida albicans. As to conditions: in the presence of fluconazole; read-out: Target Potency (μM) Mean ± S.E.M CaCi-8^a IC50. The protocol: This subset was re-subjected to the primary assay and was also tested concurrently in two secondary assays. Secondary assay 1 measured chemosensitization of the more resistant CaCi-8 strain. Secondary assay 2 eliminated anything with inherently antifungal activity. […] A final assay (secondary assay 3) was incorporated to discard any compound displaying toxicity to mammalian fibroblasts. […] This screening campaign is also illustrated in FIG. 3B.
Those that inhibited growth in the resistant strain were also tested for toxicity against Candida in the absence of fluconazole and for toxicity against mammalian cells using a fluorescence reporter assay. The positive control for screening in the Candida and mammalian cell assays was the Hsp90 inhibitor geldanamycin (acting in concert with fluconazole; FIG. 4). Compounds that passed these four hurdles were binned through use of a Saccharomyces assay to determine whether the mechanism of action might be through the Hsp90 pathway, the calcineurin pathway, or an uncategorized mechanism.

The source of these data is patent US9738610B2, “Indazole derivatives and uses thereof” (Whitehead Institute for Biomedical Research, priority 2012, dated 2017).

Where only a bound is given, the exact number is not on record here.

The IC50 is the midpoint of a concentration-inhibition curve. As for `COC(=O)Cn1nc(-c2ccc(C)cc2)c2ccccc21` [Compound 46856255], in data set [1], the “Plasma Stability” value stood at 4.1%. The results for the IC50 in data set [2] and in data set [4] were greater than 26 µM and 11 µM, respectively. In addition, in data set [3], the “Plasma Protein Binding” value is 96%.

For `COC(=O)Cn1nc(-c2ccccc2)c2ccc(OC)cc21` [Compound 49835812], the “Plasma Stability” value in data set [1] amounted to 1.3%. The IC50 was greater than 26 µM in data set [2] and 12.7 µM in data set [4]. Besides, in data set [3], the “Plasma Protein Binding” value is on record as 38%.

Regarding `CC(C)OC(=O)Cn1nc(-c2ccccc2)c2ccccc21` [Compound 49835820], the “Plasma Stability” value in data set [1] is on record as 53%. The IC50 in data set [2] and in data set [4] was greater than 26 µM throughout. For the same molecule, the “Plasma Protein Binding” value in data set [3] worked out at 99%.

Take `COCCn1nc(-c2ccccc2)c2ccccc21` [Compound 49835825]: the “Plasma Stability” value in data set [1] was 70%. For the same molecule, the IC50 in data set [2] and in data set [4] was greater than 26 µM throughout. For the same molecule, the “Plasma Protein Binding” value in data set [3] is given as greater than 99%.

`c1ccc(-c2nn(Cc3ncco3)c3ccccc23)cc1` [Compound 49835836]: the “Plasma Stability” value in data set [1] was found to be 97%. Also, the figures for the IC50 in data set [2] and in data set [4] were greater than 26 µM and 34.2 ± 7.9 µM, respectively. For the same molecule, the “Plasma Protein Binding” value in data set [3] was greater than 99%.

As for `COC(=O)Cn1nc(-c2ccccc2)c2cc(OC)ccc21` [Compound 49835837], in data set [1], the “Plasma Stability” value is on record as “PBS Solubility: <1.0 μM Plasma Protein Binding: <1.0% Plasma Stability: <1.0% Purity (UPLC): >99%”. Also, the IC50 in data set [2] was greater than 26 µM; in data set [4] it was 18.5 µM. In addition, the “Plasma Protein Binding” value in data set [3] is listed as “PBS Solubility: <1.0 μM Plasma Protein Binding: <1.0% Plasma Stability: <1.0% Purity (UPLC): >99%”.

With `CC(C)(C)OC(=O)Cn1nc(-c2ccccc2)c2ccccc21` [Compound 49835839], the “Plasma Stability” value in data set [1] worked out at 85%. Further, the IC50 in data set [2] and in data set [4] was greater than 26 µM throughout. Also, the “Plasma Protein Binding” value in data set [3] was greater than 99%.

`CCCCn1nc(-c2ccccc2)c2ccccc21` [Compound 49835848]: the “Plasma Stability” value in data set [1] is on record as 81%. Also, the half-inhibitory concentration (IC50) in data set [2] and in data set [4] was greater than 26 µM in each case. Also, the “Plasma Protein Binding” value in data set [3] is reported as greater than 99%.

Consider `COC(=O)Cn1nc(-c2ccccc2)c2ccc(C(F)(F)F)cc21` [Compound 49835849], for which the “Plasma Stability” value in data set [1] is given as 1.7%. Further, the IC50 is greater than 26 µM in data set [2] and 32.1 µM in data set [4]. For the same molecule, in data set [3], the “Plasma Protein Binding” value worked out at 62%.

Turning to `COC(=O)Cn1nc(-c2ccc(C#N)cc2)c2ccccc21` [Compound 49835863], the “Plasma Stability” value in data set [1] was less than 1.0%. For the same molecule, the values for the IC50 in data set [2] and in data set [4] were greater than 26 µM and 20 µM, respectively. For the same molecule, the “Plasma Protein Binding” value in data set [3] turned out to be 92%.

For the molecule `O=C(Cn1nc(-c2ccccc2)c2ccccc21)OC1CCC1` [Compound 49835870], the “Plasma Stability” value in data set [1] stood at 2.0%. For the same molecule, the IC50 in data set [2] and in data set [4] was greater than 26 µM in each case. Also, in data set [3], the “Plasma Protein Binding” value is reported as greater than 99%.

As to `COC(=O)C(C)(C)n1nc(-c2ccccc2)c2ccccc21` [Compound 49835873], in data set [1], the “Plasma Stability” value was found to be 63%. In addition, the half-maximal inhibitory concentration (IC50) in data set [2] and in data set [4] was greater than 26 µM each time. The “Plasma Protein Binding” value in data set [3] is greater than 99%.
